# Measured values reported in PMC8910920 (International Journal of Molecular Sciences, 2022).
# Molecular target: T1, native TRPM8 channels from rat DRG neurons (Rattus norvegicus, UniProt Q8R455)
# T1 construct: native TRPM8 channels from rat DRG neurons; endogenous in cells; host or cells: primary DRG neurons (L4-L6) from 6-8 weeks old Sprague-Dawley rats
# Assay: Whole-cell voltage-clamp, menthol-activated currents in rat DRG neurons
# Format: cell-based
# Description: We also investigated the effect of RGM8-51 on native TRPM8 channels from rat DRG neurons. Whole-cell patch-clamp recordings from small size DRG neurons evidenced menthol (100 µM)-activated inward currents at a holding voltage of −80 mV (Figure 3A). As expected from results obtained in rTRPM8-expressing HEK293 cells, RGM8-51 (1 µM) inhibited menthol-activated currents.
# Voltage-activated Na^+ and K^+ currents and TRPM8-mediated currents were recorded in DRG neurons isolated from 6-8 weeks old Sprague-Dawley rats, as previously described. Rats were sacrificed by cervical dislocation followed by decapitation and lumbar segments of the spinal column were removed and placed in a cold Ca^2+, Mg^2+-free Hank’s solution (Sigma-Aldrich, Madrid, Spain). The bone surrounding the spinal cord was removed and the right L4, L5 and L6 DRG were exposed and pulled out. After removing the roots, DRG were chopped in half and incubated for 30 min at 37°C in Dulbecco’s modified Eagle’s Medium-low glucose (DMEM; Sigma-Aldrich) containing 5 mg/mL collagenase XI (Sigma-Aldrich, Madrid, Spain), 100 U/mL penicillin (Sigma-Aldrich), and 0.1 mg/mL streptomycin (Sigma-Aldrich). Then, the cell suspension was washed with DMEM by centrifugation (300 G, 5 min at 4 °C), filtered through a 100 µm mesh to eliminate cell clumps and washed again by centrifugation. […]
# Data were sampled at 10 kHz (EPC10 amplifier with PatchMaster 2.53 software, HEKA Electronics, Lambrecht, Germany) and low-pass filtered at 3 kHz for analysis (PatchMaster 2.53 and GraphPad Prism 6.0, Graphpad Software, San Diego, CA, USA). […] Cell capacitance was measured and used to estimate the current density (J, pA/pF).
# Data analysis: For the whole-cell patch-clamp experiments, results are expressed as the percentage of remaining activation of the TRPM8 channel. This is calculated by normalizing the ratio (p2/p1) of testing conditions to the ratio (p2/p1) of the control condition. […]
# T1 sequence (Q8R455 whole entry): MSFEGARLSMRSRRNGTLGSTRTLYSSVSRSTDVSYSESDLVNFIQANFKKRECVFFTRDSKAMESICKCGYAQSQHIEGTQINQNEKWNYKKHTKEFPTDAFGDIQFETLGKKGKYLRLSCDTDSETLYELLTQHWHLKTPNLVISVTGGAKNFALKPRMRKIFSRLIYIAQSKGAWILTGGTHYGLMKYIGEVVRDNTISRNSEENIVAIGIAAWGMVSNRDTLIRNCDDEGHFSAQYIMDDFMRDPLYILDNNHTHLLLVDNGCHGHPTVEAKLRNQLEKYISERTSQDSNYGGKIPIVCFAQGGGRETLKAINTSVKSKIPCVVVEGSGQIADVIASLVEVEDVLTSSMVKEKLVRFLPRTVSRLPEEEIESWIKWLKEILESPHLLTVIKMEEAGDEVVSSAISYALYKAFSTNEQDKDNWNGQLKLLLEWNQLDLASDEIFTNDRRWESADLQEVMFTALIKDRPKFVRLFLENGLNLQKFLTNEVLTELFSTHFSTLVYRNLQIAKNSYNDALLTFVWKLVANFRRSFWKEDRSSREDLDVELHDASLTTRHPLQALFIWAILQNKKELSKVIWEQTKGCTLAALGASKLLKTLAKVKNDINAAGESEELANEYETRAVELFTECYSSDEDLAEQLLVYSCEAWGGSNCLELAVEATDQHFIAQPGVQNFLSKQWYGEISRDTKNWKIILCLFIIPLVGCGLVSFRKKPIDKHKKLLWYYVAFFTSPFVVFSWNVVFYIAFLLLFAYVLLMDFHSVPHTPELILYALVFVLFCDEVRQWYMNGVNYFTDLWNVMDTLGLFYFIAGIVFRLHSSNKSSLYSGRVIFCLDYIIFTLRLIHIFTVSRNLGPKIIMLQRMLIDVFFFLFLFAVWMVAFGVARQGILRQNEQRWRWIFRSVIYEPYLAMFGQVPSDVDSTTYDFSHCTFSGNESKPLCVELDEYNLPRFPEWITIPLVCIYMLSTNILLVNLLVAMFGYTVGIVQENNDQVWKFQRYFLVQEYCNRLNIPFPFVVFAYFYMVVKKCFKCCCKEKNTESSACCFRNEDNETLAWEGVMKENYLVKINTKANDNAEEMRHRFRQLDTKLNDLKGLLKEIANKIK
smiles,measurement,setting,value
"C[C@@H]1C(=O)N(C[C@H](Cc2ccccc2)N(Cc2ccccc2)Cc2ccccc2)[C@]1(Cc1ccccc1)C(=O)OC(C)(C)C [RGM8-51, 4(S)-Benzyl-3S-methyl-4-(tert-butoxy)carbonyl-1-[(2′S-dibenzylamino-3′-phenyl)prop-1′-yl]-2-oxoazetidine]",peak current density of menthol-activated current after compound,"1 µM, menthol 100 µM, holding −80 mV",0.51 ± 0.09 pA/pF
same,inhibition at 1 µM,"DRG neuron, 1 µM, menthol 100 µM, holding −80 mV, n = 8 cells, read-out: Mean peak current inhibition of menthol-activated currents",65 ± 4.67%
same,effect on baseline current at -80 mV,compound on its own,did not modify on its own the baseline current
